Assay results as given in patent US20230250183A1, “POLYPEPTIDE THAT SPECIFICALLY BINDING TO CD123 PROTEIN, POLYPEPTIDE COMPLEXE, CO-DELIVERY SYSTEM AND PREPARATION METHOD AND USE THEREOF” (Institute of Basic Medical Sciences Chinese Academy of …, priority 2020, published 2023).
Structures can show the parent of a compound that is named as a salt. No end group written: not given here.

Experiments:
MOLM-13 cells [1] = test: Effect of co-delivery system on the activity of MOLM-13 cells (CCK-8); assay type: cell-based; details: human, 24 h
Protocol: The following experimental groups were set and stock solutions for experiment were configured, including:
1) Polypeptide PO-6 group (PO-6): polypeptide stock solution obtained in Example 1 (polypeptide concentration is 1 mM);
2) Doxorubicin (Dox) group: doxorubicin hydrochloride was dissolved in sterile water to obtain 1 mg/mL (1.7 mM) Dox stock solution;
3) High polymer group (mPEG2000-PCL2000): 15 mg mPEG2000-PCL2000 powder was weighted and dissolved with 1 mL PBS solution to obtain 15 mg/mL (3.3 mM) mPEG2000-PCL2000 stock solution.
4) Polypeptide PO-6 and Dox combination group (PO-6+Dox): the polypeptide stock solution in experimental group 1) and the Dox stock solution in experimental group 2) were diluted with PBS solution respectively, then mixed to obtain a mixed solution. The concentration of polypeptide was 36.2 μM, the concentration of Dox was 17.24 μM, and the weight ratio of polypeptide PO-6 to Dox was 10:1 in the mixed solution; […]
Experimental procedure: MOLM-13 cells were inoculated in 96-well U-shaped plates with 8×10^4 cells per well. […] The absorbance values (OD value) at wavelengths of 450 nm and 630 nm were measured by a microplate reader, and the percent viability of cells was calculated according to Formula 1, and the control group was the cells without drug treatment, denoted as Con; […]

HUVEC cells = test: Effect of co-delivery system on the activity of HUVEC cells (CCK-8); assay type: cell-based, human; details: Dox 0.1 μM, polypeptide 2.1 μM, 24 hours, CCK8
Protocol: (§1) HUVEC cells were inoculated in 96-well plates with 1×10^4 cells per well, and grouping was the same as experiment 8. Corresponding drug stock solutions were added into each well in each experimental group to make the final Dox concentration of each well is 0.1 μM and the final corresponding polypeptide concentration of each well is 2.1 μM. Incubated at 37° C. in 5% CO2 incubator for 24 hours, then washed with PBS, and 110 μL CCK8 diluent (including 100 μL RPMI 1640 medium+10 μL CCK-8) was added in each well, followed by incubation for 2 h. The absorbance values (OD value) at wavelengths of 450 nm and 630 nm were measured by a microplate reader, and the percent viability of cells was calculated according to Formula 1, and the control group was the cells without drug treatment, denoted as Con.

[2] = as above; assay type: cell-based, human; details: human, Dox 0.1 μM, polypeptide 2.1 μM, CCK8, read-out: percent viability of cells
Protocol: as §1

[3] = test system: MOLM-13 cells (CD123-positive); test: Polypeptide binding to MOLM-13 cells by flow cytometry; details: FITC-labeled polypeptide 0.5, 1, 5 and 10 μM, 37° C., 0.5 h
Protocol: (§2) MOLM-13 and K562 cells were inoculated into 48-well plates with 2×10^5 cells per well, respectively, and FITC-labeled polypeptides listed in Table 1 were added to make the final concentrations of polypeptides were 0.5 μM, 1 μM, 5 μM and 10 μM, respectively. Incubate at 37° C. in 5% CO2 incubator for 0.5 h. After incubation, washed once with PBS solution, centrifuged at 1500 rpm for 5 min, and the supernatant was discarded, and 100 μL PBS solution was added to each well to re-suspend the cells, and 300 mesh sieve was used for filtration. Flow cytometry was used for determination of the mean fluorescence intensity (MFI) of MOLM-13 and K562 cells, and MFI was used as indication of the binding quantity of polypeptide on cells. FIGS. 2 and 3 show the quantity of polypeptides bound to cells.

MOLM-13 cells [4] = test: Binding of polypeptide, polypeptide complex to MOLM-13 observed by laser scanning confocal microscope; details: FITC-labeled, polypeptide 0.5 μM, 0.5 h
Protocol: MOLM-13 cells (2×10^5 cells per well) were incubated with FITC-labeled polypeptides (taking PO-6, and PO-6N as examples) and polypeptide complexes (see Table 2) at 37° C. for 30 min, and the final concentration of polypeptides was 0.5 μM (the final concentration of polypeptides in the cultivation system of polypeptide complexes was also 0.5 μM). After incubation, the cells were collected and washed twice with PBS solution, centrifuged at 1500 rpm for 5 min, and the supernatant was discarded. 400 μL paraformaldehyde in PBS aqueous solution (containing 4 wt % paraformaldehyde) was added to each well, and they were placed in dark at room temperature for 30 min, so that the cells were fixed by paraformaldehyde. washed once with PBS solution, centrifugated at 2000 rpm for 5 min, and the cells were dropped on the glass slide to dry naturally, and then was sealed with a mounting medium containing DAPI (4′, 6-diamidino-2-phenylindole). Laser scanning confocal microscope (Ex=488 nm (FITC); Ex=405 nm (DAPI)) was used for observation and photographing. MOLM-13 cells without any treatment were taken as the control group, i.e., Con. Photos of polypeptide PO-6 and PO-6N and corresponding polypeptide complexes (taking C-1 and C-1′ as examples) are shown in FIG. 9 and FIG. 10. […]

[5] = test system: K562 cells (CD123-negative); test: Polypeptide binding to K562 cells by flow cytometry; details: FITC-labeled polypeptide 0.5, 1, 5 and 10 μM, 37° C., 0.5 h
Protocol: as §2

## COc1cccc2c1C(=O)c1c(O)c3c(c(O)c1C2=O)C[C@@](O)(C(=O)CO)C[C@@H]3O[C@H]1C[C@H](N)[C@H](O)[C@H](C)O1 [Dox, doxorubicin hydrochloride, reference compound]
MOLM-13 cells [1]; 0.1 μM
  percent viability of cells: 57%
HUVEC cells
  percent viability of cells: about 50%

## DDDYDTRAQGTDIGCDFRRISDDD [PO-6]
MOLM-13 cells [1]; 0.21 μM
  percent viability of cells: 98%
[2]
  viability at 24 h, 2.1 µM: > 90%

## GGDDDYDTRAQGTDIGNDFRRISDDD [PO-6N]
[3]
  binding quantity to MOLM-13 cells (mean fluorescence intensity of FITC): can bind
MOLM-13 cells [4]
  green fluorescence on the cell surface compared with Con: obvious green fluorescence
[5]
  binding quantity to K562 cells (mean fluorescence intensity of FITC): very weak
